Reference: US20250171459A1, “2-METHYL-4',5'-DIHYDROSPIRO[PIPERIDINE-4,7'-THIENO[2,3-C]PYRAN] DERIVATIVES AS INHIBITORS OF APOL1 AND METHODS OF USING SAME” (Vertex Pharmaceuticals Incorporated, priority 2022, published 2025)

Molecular target: T1, APOL1 (Homo sapiens, UniProt O14791)
T1 sequence (O14791 1-398 S342G/I384M): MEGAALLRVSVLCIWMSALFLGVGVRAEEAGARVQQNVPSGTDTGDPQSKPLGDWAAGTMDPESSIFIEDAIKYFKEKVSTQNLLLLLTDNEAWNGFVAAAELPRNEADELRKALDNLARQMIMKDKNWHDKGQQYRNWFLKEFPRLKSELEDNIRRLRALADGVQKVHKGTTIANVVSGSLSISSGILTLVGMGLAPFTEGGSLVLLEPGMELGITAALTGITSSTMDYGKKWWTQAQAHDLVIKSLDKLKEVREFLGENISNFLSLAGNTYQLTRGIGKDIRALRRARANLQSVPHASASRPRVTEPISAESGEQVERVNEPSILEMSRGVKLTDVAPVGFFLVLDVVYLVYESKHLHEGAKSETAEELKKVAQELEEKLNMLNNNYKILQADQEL
Test: MultiTox-Fluor Multiplex Cytotoxicity Assay in tet-inducible APOL1 T-REx-HEK293 cells (cell rescue, ratio of dead to live cells)
Type: cell-based
Settings: tet-inducible transgenic APOL1 T-REx-HEK293 cell lines, 50 ng/mL tet, 24 hours; read-out: IP50 (i.e., IC50 for cell proliferation)
In short: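 T-REx-HEK293 cells with tet-inducible APOL1 were treated with compound (10 μM top, 10-point 3-fold dilution, duplicate) plus 50 ng/mL tetracycline for 24 h at 37° C, in DMEM with 2% tet-free FBS. MultiTox-Fluor protease signals gave a dead/live ratio, normalized to no tet (100% viability) and tet alone (0%).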

Compound	IC50 [nM]
CCc1cc2c(s1)CCO[C@@]21CCN(C[C@H]2C[C@@H](NC(=O)C3CC3C(=O)N(C)C)C2)[C@@H](C)C1 (stereo partly shown) [Compound 367]	100 to 500
CCc1cc2c(s1)CCOC21CCN(Cc2cnc(N)s2)CC1 [Compound 1134]	100 to 500
CC1Cc2sc(Cl)cc2C2(CCN(Cc3cnn(C)c3)[C@@H](C)C2)O1 (single isomer, unassigned) [Compound 529, (2′S)-2-chloro-2′,6-dimethyl-1′-[(1-methylpyrazol-4-yl)methyl]spiro[6,7-dihydrothieno[3,2-c]pyran-4,4′-piperidine]]	< 100
C[C@H]1CC2(CCN1Cc1cnn(CCS(C)(=O)=O)c1)OCC1(CC1)c1cc(Cl)sc12 (stereo partly shown) [Compound 1022, (2″S)-2′-chloro-2″-methyl-1″-((1-(2-(methylsulfonyl)ethyl)-1H-pyrazol-4-yl)methyl)-5′H-dispiro[cyclopropane-1,4′-thieno[2,3-c]pyran-7′,4″-piperidine]]	< 100
C[C@H]1C[C@@]2(CCN1Cc1cn(CCCS(C)(=O)=O)nn1)OCCc1cc(CC(F)F)sc12 [Compound 545]	< 100
CCc1cc2c(s1)CCO[C@@]21CCN(CC2CN(C(=O)c3ncc[nH]3)C2)[C@@H](C)C1 [Compound 468]	< 100
CC(C)Cn1cc(CN2CC[C@]3(C[C@@H]2C)OCCc2c3sc(Cl)c2CO)cn1 [Compound 759, [(2′S, 7R)-2-chloro-1′-[(1-isobutylpyrazol-4-yl)methyl]-2′-methyl-spiro[4,5-dihydrothieno[2,3-c]pyran-7,4′-piperidine]-3-yl]methanol]	100 to 500
COc1cc(CN2CC[C@]3(C[C@@H]2C)OC[C@H](O)c2cc(Cl)sc23)ccc1OCC(N)=O [Compound 776]	< 100
C[C@H]1C[C@@]2(CCN1Cc1ccc3c(c1)n(C)c(=O)n3C)OCCc1c2sc(C(F)(F)F)c1CO [Compound 877]	< 100
CCc1cc2c(s1)CCO[C@@]21CCN(Cc2cn(C3CN(S(=O)(=O)c4nccn4C)C3)nn2)[C@@H](C)C1 [Compound 3]	< 100
C[C@H]1C[C@@]2(CCN1Cc1cnn(CC(O)CC3(O)CCCC3)c1)OCCc1c2sc(C(F)(F)F)c1CO (stereo partly shown) [Compound 962]	< 100
Cc1c(Cl)sc2c1C(O)CO[C@@]21CCN(Cc2cnn(CCS(C)(=O)=O)c2)[C@@H](C)C1 (stereo partly drawn) [Compound 858, (2′S, 7R)-2-chloro-2′,3-dimethyl-1′-[[1-(2-methylsulfonylethyl)pyrazol-4-yl]methyl]spiro[4,5-dihydrothieno[2,3-c]pyran-7,4′-piperidine]-4-ol]	< 100
CCc1cc2c(s1)CCO[C@@]21CCN(C2COCC2O)[C@@H](C)C1 (stereo partly drawn) [Compound 233, 4-[(2′S,4R)-2-ethyl-2′-methyl-spiro[6,7-dihydrothieno[3,2-c]pyran-4,4′-piperidine]-1′-yl]tetrahydrofuran-3-ol]	100 to 500
CCc1cc2c(s1)CCO[C@@]21CCN(C[C@H]2C[C@@H](NC(=O)C(F)(F)F)C2)[C@@H](C)C1 [Compound 387, N-[3-[[(2′S,4R)-2-ethyl-2′-methyl-spiro[6,7-dihydrothieno[3,2-c]pyran-4,4′-piperidine]-1′-yl]methyl]cyclobutyl]-2,2,2-trifluoro-acetamide]	100 to 500
C[C@@H](CO)Cn1cc(CN2CC[C@]3(C[C@@H]2C)OCCc2c3sc(C(F)(F)F)c2CO)cn1 [Compound 908]	< 100
CS(=O)(=O)CCn1cc(CN2CCC3(CC2)OCCc2cc(Cl)sc23)cn1 [Compound 1169, 2′-chloro-1-((1-(2-(methylsulfonyl)ethyl)-1H-pyrazol-4-yl)methyl)-4′,5′-dihydrospiro[piperidine-4,7′-thieno[2,3-c]pyran]]	100 to 500
C[C@H]1C[C@@]2(CCN1C[C@H]1C[C@@H](NC(=O)C3CC(F)(F)C3)C1)OCCc1cc(CC(F)F)sc12 [Compound 550]	< 100
CCCc1cc2c(s1)CCO[C@@]21CCN(Cc2cnn(C)c2)[C@@H](C)C1 [Compound 520]	< 100
CCc1cc2c(s1)CCOC21CCN(Cc2cn(C3CCC3(F)F)nn2)CC1 (stereo not shown) [Compound 1123]	500 to 1000
